The values that follow come from publication PMC7897990, “TriTOX: A novel Trichomonas vaginalis assay platform for high-throughput screening of compound libraries” (International Journal for Parasitology: Drugs and Drug …, 2021).

The term IC50 denotes the concentration at which inhibition is half-maximal. A high value points to a need for much substance.

Where two headings read alike, the source gives them in different places.

The subject of data set [1] is T. vaginalis. Briefly: Medium-throughput (MTS) confirmatory dose-response growth assay, T. vaginalis. The data set is classed as cell-based, Trichomonas vaginalis. Particulars: 48 h; for activity against T. vaginalis in MTS, in words: 10-point dilution series, 96-well. How it is done:
(§1) For microtiter plate assays, trichomonads were grown in anaerobic conditions within GasPak EZ anaerobe pouches with fresh anaerobic sachets. Working reagent of the chromogen was phenol red (Sigma) in a 1% w/v working solution in phosphate buffered saline (PBS), which was filter sterilised. Chromogen absorbance was monitored at 570 nm on an absorbance microplate reader after plates were allowed to equilibrate in atmospheric conditions at room temperature for at least 5 min.
(§2) After absorbances were measured, data were processed as followed unless indicated otherwise in the text. […] Prism 8 (GraphPad) was used to plot dose-response curves and calculate IC50 values, using a least squares regression, log[inhibitor] vs normalised response (variable slope, four parameters) model. Where replicate plates were used, data for dose-response curves were plotted as the mean±SD of these replicates.
(§3) A selection of 17 compounds assayed in the high-throughput screen (HTS) for T. vaginalis which were available through BioAustralis were obtained for validation of inhibitory in/activity in our optimised medium-throughput format. For this, a 10-point serial dilution was used for drug-susceptibility testing to calculate IC50 values of ‘hit’ compounds. Mtz was used as a positive control. Each screen was performed with 3 technical replicates and a minimum of 2 biological replicates in both T. vaginalis and T. foetus using assay conditions of seeds of 10,000 cells/mL in 50 μL, with absorbance measured at 48 h. Dose response curves and IC50 were calculated for each compound as described above in Section 2.3.

Data set [2] deals with T. foetus. Briefly: Medium-throughput (MTS) confirmatory dose-response growth assay, T. foetus. In kind it is cell-based, Tritrichomonas foetus. Particulars: 48 h. How it is done:
as §1, §2, §3

The test system of data set [3] is Staphylococcus aureus (ATCC 25923). In kind it is cell-based. Particulars: 5 μg/mL.
Data set [4] concerns Bacillus subtilis (ATCC 6633). The data set is classed as cell-based. Particulars: 5 μg/mL.
For data set [5], the system named is Trichomonas vaginalis G3 trophozoites. Particulars: HTS, parasite screen at 1 µg/mL.
Data set [6] concerns nontumorigenic neonatal foreskin fibroblast (NFF) cell line.
In data set [7] the test system is Trichomonas vaginalis G3 trophozoites. The experiment in a line: microbe, parasite or virus in culture. Particulars: 48 h.

Consider `CO[C@@H]1[C@H](OC(=O)/C=C/C=C/C=C/C=C/C(=O)O)CC[C@]2(CO2)[C@H]1[C@@]1(C)O[C@@H]1CC=C(C)C` [Fumagillin, fumagillin, reference compound], for which the “activity against T. vaginalis in MTS, in words” value in data set [1] was “near nanomolar potency”; in data set [1] (listed as fumagillin) it was “true positives”. The IC50 is 0.26 ± 0.11 µM in data set [1] (Trichomonas vaginalis, 96-well, 10,000 cells/mL in 50 μL, mean ± SEM, >10 = no appreciable activity at highest dose) and 0.18 ± 0.03 µM in data set [2] (Tritrichomonas foetus, 96-well, 10,000 cells/mL in 50 μL, mean ± SEM, >10 = no appreciable activity at highest dose). Further, in data set [2] (10-point dilution series, 96-well), the “activity against T. foetus in MTS, in words” value is “near nanomolar potency”. Besides, the “antibacterial activity against Staphylococcus aureus” value in data set [3] was “no anti-bacterial”. In data set [4], the “antibacterial activity against Bacillus subtilis” value was “no anti-bacterial”. Moreover, the T.vaginalis_Absorbance_Rep1 in data set [5] (replicate 1, raw absorbance) stood at 1.617. The molecule further came in with a T.vaginalis_Absorbance_Rep2 in data set [5] (replicate 2, raw absorbance) of 1.25. Also, the “cytotoxic activity (NFF)” value in data set [6] is listed as “no anti-bacterial nor cytotoxic activity”. Besides, the inhibition of growth at 1 µg/mL in data set [7] (read-out: T.vaginalis_%inb_Rep1) worked out at 48.9%; in data set [7] (read-out: T.vaginalis_%inb_Rep2), 45.5%.
